# Source: patent publication US5731452A, “7-thiaprostaglandins and method of production thereof” (Teijin Limited, priority 1994, dated 1998)
# System: cell migration induced by MCP-1 in human promonocytic leukemia cell line, THP-1
# Assay: Activity for inhibiting cell migration induced by MCP-1 (THP-1 cells)
# Type: cell-based
# Conditions: 20 ng/ml recombinant human MCP-1, 37° C., two hours
# Protocol: The cell migration induced by the monocyte chemoattractant protein MCP-1/MCAF was measured for the purpose of investigating the activity of the tested compounds shown in Table 1 in inhibiting cell migration by the following manner in accordance with the method of Falk et al. (J. Immunol. Methods, 33, 239-247 (1980)) using human promonocytic leukemia cell line, THP-1 (ATCC TIB203). That is, THP-1 cells diluted to 2×10^6 /ml by 10% fetal calf serum: FCS-containing RPMI-1640 medium (made by Flow Laboratories) were added to the upper chamber (200 μl) of the 96-well microchemotaxis chamber (made by Neuroprobe Inc.) while recombinant human MCP-1 (made by Peprotech Co.) diluted by the same medium to a final concentration of 20 ng/ml was added to the bottom chamber (35 μl). A polycarbonate filter (pore size of 5 μm, PVP-free, made by Neuroprobe Co) was affixed between the two. Incubation was performed at 37° C. in the presence of 5% CO2 for two hours. The filter was taken out, then the cells migrating to the bottom surface of the filter were fixed and stained by a Diff Quick solution (made by International Reagents Co.), then were measured by a plate reader (made by Molecular Device Co.) at a measurement wavelength of 550 nm. The mean value of three wells was determined and used as the indicator of the number of the migrating cells. At this time, the text compounds were added at various concentrations along with the THP-1 cells to the top chambers and the activity in inhibiting cell migration was determined. The percent of inhibition of cell migration was found by dividing the {(number of migrating cells caused by the MCP-1 added to the bottom chamber in the case of the test compound being added to the top chamber)--(number of migrating cells in the case of no test compound being added to the top chamber and no MCP-1 being added to the bottom chamber)} by the {(number of migrating cells caused by the MCP-1 added to the bottom chamber in the case of no test compound being added to the top chamber)--(number of migrating cells in the case of no test compound being added to the top chamber and no MCP-1 being added to the bottom chamber)}.
row,Compound,IC50
1,CCCC(=O)OC1=C(SCCCCCC(=O)OC)[C@@H](/C=C/C(O)C(C)(C)c2ccccc2)[C@H](O)C1 (stereo partly shown) [drawing 135],100 nM
2,CCCC(=O)OC1=C(SCCCCCC(=O)OC)[C@@H](/C=C/C(O)C(C)(C)c2ccccc2)[C@H](O)C1 (stereo partly shown) [drawing 136],13 nM
3,CCCC(=O)OC1=C(SCCCCCC(=O)OC)[C@@H](/C=C/C(O)C(C)c2ccccc2)[C@H](O)C1 (stereo partly shown) [drawing 139],6 nM
4,CCCC(=O)OC1=C(SCCCCCC(=O)OC)[C@@H](/C=C/C(O)C(C)c2ccccc2)[C@H](O)C1 (stereo partly shown) [drawing 140],0.021 nM
5,CCCC(=O)OC1=C(SCCCCCC(=O)OC)[C@@H](/C=C/C(O)C(c2ccccc2)c2ccccc2)[C@H](O)C1 (stereo partly shown) [drawing 142],1300 nM
6,CCCC(=O)OC1=C(SCCCCCC(=O)OC)[C@@H](/C=C/C(O)C(c2ccccc2)c2ccccc2)[C@H](O)C1 (stereo partly shown) [drawing 143],> 5000 nM
7,CCCC(=O)OC1=C(SCCCCCC(=O)OC)[C@@H](/C=C/C(O)CCCc2ccccc2)[C@H](O)C1 (stereo partly shown) [drawing 146],300 nM
8,CCCC(=O)OC1=C(SCCCCCC(=O)OC)[C@@H](/C=C/C(O)CCCc2ccccc2)[C@H](O)C1 (stereo partly shown) [drawing 147],4.3 nM
9,CCCC(=O)OC1=C(SCCCCCC(=O)OC)[C@@H](/C=C/C(O)Cc2ccc(C)cc2)[C@H](O)C1 (stereo partly shown) [drawing 148],> 10000 nM
10,CCCC(=O)OC1=C(SCCCCCC(=O)OC)[C@@H](/C=C/C(O)Cc2ccc(C)cc2)[C@H](O)C1 (stereo partly shown) [drawing 149],100 nM
11,CCCC(=O)OC1=C(SCCCCCC(=O)OC)[C@@H](/C=C/C(O)Cc2ccsc2)[C@H](O)C1 (stereo partly shown) [drawing 151],90 nM
12,CCCC(=O)OC1=C(SCCCCCC(=O)OC)[C@@H](/C=C/C(O)Cc2ccsc2)[C@H](O)C1 (stereo partly shown) [drawing 152],0.08 nM
13,CCCC(=O)OC1=C(SCCCCCC(=O)OC)[C@@H](/C=C/C(O)Cc2cccc(C)c2)[C@H](O)C1 (stereo partly shown) [drawing 153],600 nM
14,CCCC(=O)OC1=C(SCCCCCC(=O)OC)[C@@H](/C=C/C(O)Cc2cccc(C)c2)[C@H](O)C1 (stereo partly shown) [drawing 154],1.2 nM
15,CCCC(=O)OC1=C(SCCCCCC(=O)OC)[C@@H](/C=C/C(O)Cc2cccc(Cl)c2)[C@H](O)C1 (stereo partly shown) [drawing 155],8 nM
16,CCCC(=O)OC1=C(SCCCCCC(=O)OC)[C@@H](/C=C/C(O)Cc2cccc(Cl)c2)[C@H](O)C1 (stereo partly shown) [drawing 156],0.4 nM
17,CCCC(=O)OC1=C(SCCCCCC(=O)OC)[C@@H](/C=C/C(O)Cc2cccc(OC)c2)[C@H](O)C1 (stereo partly shown) [drawing 157],33 nM
18,CCCC(=O)OC1=C(SCCCCCC(=O)OC)[C@@H](/C=C/C(O)Cc2cccc(OC)c2)[C@H](O)C1 (stereo partly shown) [drawing 158],2.3 nM
19,CCCC(=O)OC1=C(SCCCCCC(=O)OC)[C@@H](/C=C/C(O)Cc2cccc(C(=O)OC)c2)[C@H](O)C1 (stereo partly shown) [drawing 159],230 nM
20,CCCC(=O)OC1=C(SCCCCCC(=O)OC)[C@@H](/C=C/C(O)Cc2cccc(C(=O)OC)c2)[C@H](O)C1 (stereo partly shown) [drawing 160],2.3 nM
21,CCCC(=O)OC1=C(SCCCCCC(=O)OC)[C@@H](/C=C/C(O)Cc2ccccc2C)[C@H](O)C1 (stereo partly shown) [drawing 161],190 nM
22,CCCC(=O)OC1=C(SCCCCCC(=O)OC)[C@@H](/C=C/C(O)Cc2ccccc2C)[C@H](O)C1 (stereo partly shown) [drawing 162],4.4 nM
23,CCCC(=O)OC1=C(SCCCCCC(=O)OC)[C@@H](/C=C/C(O)Cc2ccc([N+](=O)[O-])cc2)[C@H](O)C1 (stereo partly shown) [drawing 163],< 100 nM
24,CCCC(=O)OC1=C(SCCCCCC(=O)OC)[C@@H](/C=C/C(O)Cc2ccc([N+](=O)[O-])cc2)[C@H](O)C1 (stereo partly shown) [drawing 164],3.6 nM
25,CCCC(=O)OC1=C(SCCCCCC(=O)OC)[C@@H](/C=C/C(O)Cc2ccc(Cl)cc2)[C@H](O)C1 (stereo partly shown) [drawing 165],< 100 nM
26,CCCC(=O)OC1=C(SCCCCCC(=O)OC)[C@@H](/C=C/C(O)Cc2ccc(Cl)cc2)[C@H](O)C1 (stereo partly shown) [drawing 166],< 1 nM
27,CCCC(=O)OC1=C(CCCCCCC(=O)OC)[C@@H](/C=C/C(O)Cc2ccccc2)[C@H](O)C1 (stereo partly shown) [drawing 167],4000 nM
28,CCCC(=O)OC1=C(CCCCCCC(=O)OC)[C@@H](/C=C/C(O)Cc2ccccc2)[C@H](O)C1 (stereo partly shown) [drawing 168],5 nM

# Same assay, conditions: Homo sapiens, THP-1, 2 h, 20 ng/ml recombinant human MCP-1, 37° C., two hours
row,Compound,IC50
1,CCCCC[C@H](O)/C=C/[C@@H]1C(SCCCCCC(=O)OC)=C(OC(=O)[C@H](Cc2ccccc2)NC(=O)OCc2ccccc2)C[C@H]1O,0.22 nM
2,CCCCC(C)(O)C/C=C/[C@@H]1C(SCCCCCC(=O)OC)=C(OC(=O)CCC)C[C@H]1O (stereo partly shown),1.7 nM
3,CCCC(=O)OC1=C(SCCCCCC(=O)OC)[C@@H](/C=C/C(O)C2CCCCC2)[C@H](O)C1 (stereo partly shown),100 nM
4,CCCC(=O)OC1=C(SCCCCCC(=O)OC)[C@@H](/C=C/C(O)CCc2ccccc2)[C@H](O)C1 (stereo partly shown),8.5 nM
5,CCCC(=O)OC1=C(SCCCCCC(=O)OC)[C@@H](/C=C/[C@@H](O)CCOCC)[C@H](O)C1,120 nM
6,CCCCCC(O)CC[C@@H]1C(SCCCCCC(=O)OC)=C(OC(=O)CCC)C[C@H]1O (stereo partly shown),0.14 nM
7,CCCC(=O)OC1=C(SCCCCCC(=O)OC)[C@@H](/C=C/C(O)c2ccccc2)[C@H](O)C1 (stereo partly shown),> 1000 nM
8,CCCC(=O)OC1=C(SCCCCCC(=O)OC)[C@@H](/C=C/[C@@H](O)Cc2ccccc2)[C@H](O)C1,1.1 nM
9,CCCCC(C)C[C@H](O)/C=C/[C@@H]1C(SCCC/C=C/C(=O)OC)=C(OC(=O)CCC)C[C@H]1O (stereo partly shown),6 nM
10,CCCC(=O)OC1=C(SCCCCCC(=O)OC)[C@@H](/C=C/[C@@H](O)C2CCCC2)[C@H](O)C1 [drawing 121],0.51 nM
11,CCCC(=O)OC1=C(SCCCCCC(=O)OC)[C@@H](/C=C/[C@@H](O)C2CCCCC2)[C@H](O)C1 [drawing 123],2.5 nM
12,CCCCC[C@H](O)/C=C/[C@@H]1C(SCCCCCC(=O)O)=C(OC(=O)CCC)C[C@H]1O [drawing 126],0.81 nM
13,CCCCC(C)C[C@H](O)/C=C/[C@@H]1C(SCCCCCC(=O)OC)=C(OC(=O)c2ccccc2)C[C@H]1O (stereo partly shown) [drawing 129],810 nM
14,CCCC(=O)OC1=C(SCCCCCC(=O)OC)[C@@H](/C=C/C(O)Cc2ccccc2)[C@H](O)C1 (stereo partly shown) [drawing 131],8.3 nM
15,CCCC(=O)OC1=C(SCCCCCC(=O)OC)[C@@H](/C=C/C(O)[C@H](C)c2ccccc2)[C@H](O)C1 (stereo partly shown) [drawing 137],3 nM
16,CCCCC(C)C[C@H](O)/C=C/[C@@H]1C(SCCCOCC(=O)OC)=C(OC(=O)CCC)C[C@H]1O (stereo partly shown) [drawing 141],2.1 nM

# System: rat platelet
# Assay: Rat platelet aggregation inhibiting activity
# Type: cell-based
# Conditions: rat platelet rich plasma; adenosine 2-phosphate induced; 37° C., one minute
# Protocol: Wistar rats (males, approximately 400 g) were made to fast for one day, the entire blood was removed from the chest artery under anesthesia by ether, then a 1/10 volume of 3.8% aqueous solution of sodium citrate was added and immediately mixed in. The solution was centrifuged at 1000 rpm for 10 minutes, then the upper layer was used as the platelet rich plasma. The lower layer was centrifuged at 3000 rpm for 10 minutes and the upper layer of that was used as the platelet poor plasma. The platelet rich plasma was diluted by the platelet poor plasma to give a number of platelets of 3.5×10^8 /mm^3. This was used for the measurement. Note that the measurement of the platelets was performed using an automatic blood cell counter MEK-4500 (Nihon Koden). The measurement of the platelet aggregation was performed by measuring the turbidity using an NBS HEMA TRACER 801 (M.C. Medical). 90 μl of the platelet solution was inserted in a cuvette, then 5 μl each of the test compounds was added to give the target final concentration. The result was heated for one minute at 37° C., then 5 μl of a 100 μM aqueous solution of adenosine 2-phosphate (M.C. Medical) was added to induce platelet aggregation. The aggregation inhibiting activity was found from the following formula.
# Aggregation inhibiting rate (%)={1-(maximum change of turbidity at time of
# addition of drug)/(maximum change of turbidity at time of non-addition of
# Further, the concentration of the compound giving 50% inhibition was used as the IC50.
row,Compound,IC50
1,CCCCC(C)C[C@H](O)/C=C/[C@@H]1C(SCCCCCC(=O)OC)=C(OC(C)=O)C[C@H]1O (stereo partly shown),52 nM
2,CCCCC(C)C[C@H](O)/C=C/[C@@H]1C(SCCCCCC(=O)OC)=C(OC(=O)C(C)C)C[C@H]1O (stereo partly shown),500 nM
3,CCCCC(C)C[C@H](O)/C=C/[C@@H]1C(SCCCCCC(=O)OC)=C(OC(=O)C(C)(C)C)C[C@H]1O (stereo partly shown),1280 nM
4,CCCCOC(=O)CCCCCSC1=C(OC(=O)CCC)C[C@@H](O)[C@@H]1/C=C/[C@@H](O)CC(C)CCCC (stereo partly shown),221 nM
5,CCCCC[C@H](O)/C=C/[C@@H]1C(SCCCCCC(=O)OC)=C(OC(=O)CCC)C[C@H]1O,629 nM
6,CCCC(=O)OC1=C(SCCCCCC(=O)OC)[C@@H](/C=C/C(O)CC(C)C)[C@H](O)C1 (stereo partly shown),380 nM
7,CCCCC(C)C[C@H](O)/C=C/[C@@H]1C(SCCCCCC(=O)OC)=C(OC(=O)CCC)C[C@H]1O (stereo partly shown) [drawing 170],129 nM
8,CCCC(=O)OC1=C(SCCCCCC(=O)OC)[C@@H](/C=C/[C@@H](O)C2CCCC2)[C@H](O)C1 [drawing 176],284 nM
9,CCCC(=O)OC1=C(SCCCCCC(=O)OC)[C@@H](/C=C/[C@@H](O)C2CCCCC2)[C@H](O)C1 [drawing 177],73 nM
10,CCCCC(C)C[C@H](O)/C=C/[C@@H]1C(SCCCCCC(=O)OC)=C(OC(=O)c2ccccc2)C[C@H]1O (stereo partly shown) [drawing 179],700 nM
11,CCCC(=O)OC1=C(SCCCCCC(=O)OC)[C@@H](/C=C/C(O)CCCc2ccccc2)[C@H](O)C1 (stereo partly shown) [drawing 180],290 nM
